This assay concerns P388. As to the kind of experiment: Antileukemic activity against P-388 leukemia cells. As to conditions: Mus musculus. It is filed as functional, cell-based.

In brackets after ≈: the same amount, converted by molar mass.

As usually defined, the IC50 is the point on the concentration scale where inhibition reaches its midpoint. Low values mean greater potency in that assay, high ones weaker potency in that assay. `COC(=O)C[C@](O)(CCC(C)C)C(=O)O[C@H]1[C@H]2c3cc4c(cc3[C@H]3CN5CCC[C@]25C[C@]1(OC)O3)OCO4`: the IC50 turned out to be 0.007 µg/mL (≈ 0.0132 µM). As for `COC(=O)C[C@](O)(CCC(C)C)C(=O)O[C@@H]1C(OC)=CC23CCCN2CCc2cc4c(cc2[C@H]13)OCO4` (single isomer, unassigned) [DEOXYHARRINGTONINE], inhibition was half-maximal at 0.0075 µg/mL (≈ 0.0145 µM) (IC50). As for `COC(=O)C[C@](O)(CCC(C)(C)O)C(=O)O[C@@H]1C(OC)=CC23CCCN2CCc2cc4c(cc2[C@H]13)OCO4` (single isomer, unassigned) [HARRINGTONINE], the figure is 0.032 µg/mL (≈ 0.0602 µM); as for `COC(=O)C[C@](O)(CCCC(C)(C)O)C(=O)O[C@@H]1C(OC)=CC23CCCN2CCc2cc4c(cc2[C@H]13)OCO4` (single isomer, unassigned) [OMACETAXINE MEPESUCCINATE], 0.017 µg/mL (≈ 0.0312 µM).

For the origin of these results see ChEMBL document CHEMBL1129123, “Drupangtonine, a novel antileukemic alkaloid from Cephalotaxus harringtonia var. drupacea” (Bioorg Med Chem Lett, 1996).
